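48-hour exposure; five concentrations; linearly interpolated endpoints. GI50 is the concentration that inhibits growth by half.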 Active and inactive are the calls of the source. Cut-off read from the data, not from the text of the source: active = GI50 up to about 1.1 µM and inactive = higher.
Tests used:
Experiment in all cases: DTP human tumour cell line panel, 48 h
SNB-75 = test system: SNB-75
HOP-62 = test system: HOP-62
NCI-H23 = test system: NCI-H23
SW-620 = test system: SW-620
ACHN = test system: ACHN
HT-29 = test system: HT-29
HL-60 = test system: HL-60
SF-295 = test system: SF-295
SF-539 = test system: SF-539
SK-MEL-2 = test system: SK-MEL-2
LOX IMVI = test system: LOX IMVI
UO-31 = test system: UO-31
HCC 2998 = test system: HCC 2998
Malme-3M = test system: Malme-3M
SK-MEL-28 = test system: SK-MEL-28
NCI-H460 = test system: NCI-H460
OVCAR-3 = test system: OVCAR-3

Measured: GI50

CC(C)N(C(=O)C12C3C4C1(I)C1C2C3(I)C41C(=O)N(C(C)C)C(C)C)C(C)C (configuration not stated)
inactive: SNB-75 > 73.1 µM | HOP-62 > 100 µM | NCI-H23 > 100 µM | SW-620 > 39.2 µM | ACHN > 100 µM | HT-29 > 100 µM | HL-60 > 44.9 µM | SF-295 > 100 µM | SF-539 > 43.9 µM | SK-MEL-2 > 100 µM | LOX IMVI > 43.5 µM | UO-31 > 100 µM | HCC 2998 > 100 µM | Malme-3M > 100 µM | SK-MEL-28 > 100 µM | NCI-H460 > 100 µM | OVCAR-3 > 100 µM

Nc1nc(=O)c(/N=N/c2ccccc2)c(N)[nH]1
inactive: SNB-75 3.78 µM | HOP-62 30.8 µM | NCI-H23 22.8 µM | SW-620 78.2 µM | ACHN 27.4 µM | HT-29 28.4 µM | HL-60 28.1 µM | SF-295 32.7 µM | SF-539 26.4 µM | SK-MEL-2 39.2 µM | LOX IMVI 47.5 µM | UO-31 42.4 µM | HCC 2998 38.4 µM | Malme-3M 15.3 µM | SK-MEL-28 24.8 µM | NCI-H460 24.6 µM | OVCAR-3 71.8 µM

O=C(O/N=C1/CCCC/C1=C\c1ccccc1)c1ccccc1
inactive: SNB-75 > 100 µM | HOP-62 > 100 µM | NCI-H23 > 100 µM | SW-620 > 100 µM | ACHN > 100 µM | HT-29 40 µM | HL-60 20.2 µM | SF-295 70.3 µM | SF-539 > 100 µM | SK-MEL-2 > 100 µM | LOX IMVI 33 µM | UO-31 > 100 µM | HCC 2998 > 100 µM | Malme-3M > 100 µM | SK-MEL-28 > 100 µM | NCI-H460 > 10 µM | OVCAR-3 > 100 µM

N#Cc1nc(Nc2ccc(Cl)cc2)sc1N
inactive: SNB-75 28.8 µM | HOP-62 15 µM | NCI-H23 3.19 µM | SW-620 6.1 µM | ACHN 3.86 µM | HT-29 19.7 µM | HL-60 4.92 µM | SF-295 16.9 µM | SF-539 2.78 µM | SK-MEL-2 15.1 µM | LOX IMVI 3.47 µM | UO-31 3.62 µM | HCC 2998 6.87 µM | Malme-3M 11.6 µM | SK-MEL-28 20.5 µM | NCI-H460 16.4 µM | OVCAR-3 17.8 µM

CN(CCN(C)C(=O)CCn1cc(F)c(=O)[nH]c1=O)C(=O)CCn1cc(F)c(=O)[nH]c1=O
inactive: SNB-75 36.2 µM | HOP-62 > 100 µM | NCI-H23 > 100 µM | SW-620 > 100 µM | ACHN > 100 µM | HT-29 > 100 µM | HL-60 > 100 µM | SF-295 > 100 µM | SF-539 95.5 µM | SK-MEL-2 > 100 µM | LOX IMVI > 100 µM | UO-31 > 100 µM | HCC 2998 > 100 µM | Malme-3M > 100 µM | SK-MEL-28 > 100 µM | NCI-H460 > 100 µM | OVCAR-3 > 100 µM

C=CCc1cc(OC)c(O)c(C(=O)/C=C/c2ccc(OC)c(OC)c2)c1
inactive: SNB-75 22.5 µM | HOP-62 > 10 µM | NCI-H23 15 µM | SW-620 24.4 µM | ACHN 19.9 µM | HT-29 16.4 µM | HL-60 11.6 µM | SF-295 16.1 µM | SF-539 19.1 µM | SK-MEL-2 13.3 µM | LOX IMVI 16.3 µM | UO-31 15.9 µM | HCC 2998 21.8 µM | Malme-3M 18.6 µM | SK-MEL-28 16.9 µM | NCI-H460 30.1 µM | OVCAR-3 19.3 µM

Clc1c(Cl)c2c(Cl)c(Cl)c1C[PH](c1ccccc1)(c1ccccc1)CC[PH](c1ccccc1)(c1ccccc1)Cc1c(Cl)c(Cl)c(c(Cl)c1Cl)C[PH](c1ccccc1)(c1ccccc1)CC[PH](c1ccccc1)(c1ccccc1)C2
inactive: SNB-75 3.46 µM | HOP-62 4.95 µM | NCI-H23 2.01 µM | SW-620 3.31 µM | ACHN 4.69 µM | HT-29 2.21 µM | HL-60 1.36 µM | SF-295 3.35 µM | SF-539 3.68 µM | SK-MEL-2 2.16 µM | LOX IMVI 2.52 µM | UO-31 6.49 µM | HCC 2998 3.63 µM | Malme-3M 2.38 µM | SK-MEL-28 2.02 µM | NCI-H460 2.77 µM | OVCAR-3 2.66 µM

Cc1ccc(C(=O)C#Cc2cnc(O)nc2O)cc1
inactive: SNB-75 19.1 µM | HOP-62 29.3 µM | NCI-H23 17.5 µM | SW-620 8.69 µM | ACHN 15.6 µM | HT-29 21.5 µM | HL-60 11.5 µM | SF-295 29.2 µM | SF-539 4.09 µM | SK-MEL-2 14.4 µM | LOX IMVI 3.92 µM | UO-31 17.4 µM | HCC 2998 12.7 µM | Malme-3M 5.56 µM | SK-MEL-28 16.9 µM | NCI-H460 16.7 µM | OVCAR-3 13.5 µM

N#CCC(=O)N/N=C(/C(=O)Nc1ccccc1)C1C(=O)N(c2ccccc2)N=C1N (configuration not stated)
inactive: SNB-75 > 100 µM | HOP-62 > 100 µM | NCI-H23 > 100 µM | SW-620 > 100 µM | ACHN > 100 µM | HT-29 > 100 µM | HL-60 > 100 µM | SF-295 > 100 µM | SF-539 > 100 µM | SK-MEL-2 > 100 µM | LOX IMVI > 100 µM | UO-31 > 100 µM | HCC 2998 > 100 µM | Malme-3M > 100 µM | SK-MEL-28 > 100 µM | NCI-H460 > 100 µM | OVCAR-3 > 100 µM

CN1CC(C(=O)C2C(=O)c3ccccc3C2=O)C(=O)C(=O)C(C(=O)C2C(=O)c3ccccc3C2=O)C1 (configuration not stated)
inactive: SNB-75 32.9 µM | HOP-62 > 10 µM | NCI-H23 > 100 µM | SW-620 > 100 µM | ACHN > 100 µM | HT-29 > 100 µM | HL-60 > 100 µM | SF-295 > 100 µM | SF-539 > 100 µM | SK-MEL-2 > 100 µM | LOX IMVI > 100 µM | UO-31 > 100 µM | HCC 2998 > 100 µM | Malme-3M > 100 µM | SK-MEL-28 > 100 µM | NCI-H460 > 100 µM | OVCAR-3 > 10 µM

COC(=O)[C@@H]1CSC(=S)N1C(=O)C[C@H]1CC=CC[C@H]1CC(=O)Sc1ccccc1
inactive: SNB-75 15.4 µM | HOP-62 20.7 µM | NCI-H23 21 µM | SW-620 17.4 µM | ACHN 17.6 µM | HT-29 19.8 µM | HL-60 3.47 µM | SF-295 22 µM | SF-539 17.8 µM | SK-MEL-2 22.2 µM | LOX IMVI 17.7 µM | UO-31 13.8 µM | HCC 2998 17.9 µM | Malme-3M 21.5 µM | SK-MEL-28 16.4 µM | NCI-H460 17.7 µM | OVCAR-3 19.2 µM

Source: ChEMBL document CHEMBL1201862, “PubChem BioAssay data set” (2004)
